In patent US8871722B2, “Perhydrolase epitopes” (Danisco US Inc., priority 2005, dated 2014):

Tested on: human CD4+ T-cells

In the case of “QLIFEGGEQKTTELA (listed as Mycobacterium smegmatis) [SEQ ID NO:53]”, the “identification of peptide T-cell epitope (significant response in donor pool)” value (5 μM peptide, human donors) is reported as “one peptide of interest was identified”.

In the case of tetanus toxoid [reference compound], the “positive control proliferative response” value (tetanus toxoid at approximately 5 Lf/mL) is reported as “robust positive control responses”.

B1: perhydrolase: wild-type M. smegmatis perhydrolase enzyme, amino acid sequence SEQ ID NO:2 (protein, listed as Mycobacterium smegmatis)
chain: MAKRILCFGDSLTWGWVPVEDGAPTERFAPDVRWTGVLAQQLGADFEVIEEGLSARTTNIDDPTDPRLNGASYLPSCLATHLPLDLVIIMLGTNDTKAYFRRTPLDIALGMSVLVTQVLTSAGGVGTTYPAPKVLVVSPPPLAPMPHPWFQLIFEGGEQKTTELARVYSALASFMKVPFFDAGSVISTDGVDGIHFTEANNRDLGVALAEQVRSLL
For B1, the “structure index value (relative immunogenicity)” value (scale 0 to 2, the closer to 2.0 the more immunogenic) was < 0.5.
